Experimental data published in patent publication US20170246189A1, “METHOD FOR TREATING UTERINE FIBROIDS” (LABORATOIRE HRA-PHARMA, priority 2008, published 2017).

What was measured:
fibroid = details: Murphy 1995, Zeng 1998; cited from earlier work
[1] = tested on: menstrual bleeding in women with symptomatic fibroids; experiment: Randomized placebo-controlled trial: menstrual function / bleeding; assay type: in vivo, human (women); details: for menstrual bleeding: 3 cycles/90 days, placebo had monthly menses; for menses compared to placebo: 10 or 20 mg daily, 90 days
Description: (§1) Healthy women aged 33-50 years with symptomatic fibroids and regular menstrual cycles were considered for enrollment.
(§2) Inclusion criteria included regular cycles and contraceptive use, and symptomatic fibroids as defined by ACOG practice bulletin 1994: • Excessive uterine bleeding evidenced by either of the following: profuse bleeding with flooding or clots or repetitive periods lasting for more than 8 days; or anemia due to acute or chronic blood loss; • or pelvic discomfort caused by leiomyomata, either acute or severe or chronic lower abdominal or low back pressure or bladder pressure with urinary frequency not due to urinary tract infection.
(§3) Exclusion criteria included pregnancy, hemoglobin <10 g/dL, current hormone therapy, rapidly enlarging uterus and FSH […]. MR images were obtained to record fibroid number, location and volume, before starting study drug and within 2 weeks of surgery. Women took ulipristal at an oral dose of 10 or 20 mg, or placebo (PLC: microcrystalline cellulose) for 3 cycles, or 90 days if they became anovulatory. The percent change in total fibroid volume was compared, Wilcoxon rank sum test and t-test were used as needed.
Additional analyses evaluated treatment-related differences in menstrual function.

fibroid tissue [2] = experiment: TUNEL assay and IHC for Ki67 and phospho H3 on fibroid tissue sections (apoptosis and proliferation); assay type: in vivo, human (women); details: compared to placebo
Protocol: (§4) Pre-menopausal women with symptomatic fibroids received ulipristal (10 or 20 mg; n=12) or placebo (PL) (n=6) in a blinded, randomized allocation, for 90 days before hysterectomy. No other hormonal therapy was given. Fibroid tissue and adjacent myometrium were collected at surgery and processed in RNAlater (for RNA isolation). Fibroid tissue also was processed for paraffin embedding (for immunohistochemisty (IHC) and TUNEL assay). Total RNA was used for Affymetrix microarray with the U133 Plus 2.0 human chip. Differential transcription of genes of interest was confirmed by RT-PCR analysis. The TUNEL assay and IHC for Ki67 and phosphorylaied histone 3 (phospho H3) were applied to paraffin embedded tissue sections, and the percentage of positive stained cells was noted to assess apoptosis and proliferation. RT-PCR results and proliferation assays were analyzed using two-tailed student t-test; Kruskal-Wallis test was used to assess TUNEL assay results; P<0.05 was considered significant.

uterine fibroids = experiment: Randomized, placebo-controlled, double blinded, parallel trial: change in total fibroid volume by MR imaging; assay type: in vivo, human (women); details: for reduction in fibroid volume: three months (90 days), placebo +6%
Description: as §1, §2, §3

[3] = tested on: benign metastatic leiomyoma; experiment: Compassionate treatment of benign metastatic leiomyoma (single patient); assay type: in vivo, human; details: daily oral dose of 10-20 mg
Protocol: A person with known benign metastatic leiomyoma status post abdominal surgery that confirmed multiple nodules was treated with ulipristal (daily oral dose of 10-20 mg), in a compassionate protocol. […] More importantly, their pulmonary function tests improved from 50% of predicted to 103% of predicted after 3 months of treatment. They felt better.

fibroid tissue [4] = experiment: Gene expression profiling (Affymetrix microarray, RT-PCR) of fibroid tissue after 90 days treatment; assay type: in vivo, human (women)
Protocol: as §4

For `CC#C[C@]1(O)CC[C@H]2[C@@H]3CCC4=CC(=O)CCC4=C3[C@@H](c3ccc(N(C)C)cc3)C[C@@]21C` [mifepristone], the fibroid size (fibroid) is listed as “reduced fibroid size in a dose-dependent manner”.
For “17α-acetoxy-11β-[4N,N-dimethylamino-phenyl) -19-norpregna- 4,9-diene-3,20-dione [ulipristal]”, the menstrual bleeding ([1]; 10 mg oral daily) was “single episode of menstrual bleeding”, the menstrual bleeding ([1]; 20 mg oral daily) was “no woman receiving 20 mg had any bleeding” and the “menses compared to placebo” value [1] was “induced amenorrhea”. The “menses compared to placebo” value ([1]; listed as CDB-2914) was “significant reduction in menses”, the measures of proliferation (fibroid tissue [2]; IHC Ki67 and phospho H3, fibroids after 90 days 10 or 20 mg) was “decreased measures of proliferation” and the measures of apoptosis (fibroid tissue [2]; TUNEL assay, fibroids after 90 days 10 or 20 mg) was “increased measures of apoptosis”. The “change in total fibroid volume” value (uterine fibroids; 10 mg and 20 mg groups combined, three months, placebo 6%, p=0.01) was -29%, the “reduction in fibroid volume” value (uterine fibroids; 10 mg oral daily) was 36% and the “reduction in fibroid volume” value (uterine fibroids; 20 mg oral daily) was 21%. For the same molecule, the liver nodule [3] was “decrease in a liver nodule”, the right pleural effusion [3] was “resolution of a right pleural effusion” and the pulmonary function tests ([3]; after 3 months of treatment, improved from 50% of predicted) was 103 % of predicted. For the same molecule, the uterine fibroids ([3]; two uterine fibroids) was “some decrease in two uterine fibroids”, the “genes expressed differentially between ulipristal and placebo” value (fibroid tissue [4]; microarray, 2 fold change cut-off and P<0.02) was 314 genes and the “Fold change of RT-PCR gene product, NDP” value (fibroid tissue [4]; ulipristal (10 or 20 mg, 90 days) treated compared to placebo, P 0.001) was −5.6. The “Fold change of RT-PCR gene product, PLP1” value (fibroid tissue [4]; ulipristal (10 or 20 mg, 90 days) treated compared to placebo, P 0.006) was 9.2, the “Fold change of RT-PCR gene product, Wnt5A” value (fibroid tissue [4]; ulipristal (10 or 20 mg, 90 days) treated compared to placebo, P 0.008) was −2.4 and the “Fold change of RT-PCR gene product, ZAK” value (fibroid tissue [4]; ulipristal (10 or 20 mg, 90 days) treated compared to placebo, P 0.014) was 1.5. For the same molecule, the “Fold change of RT-PCR gene product, FAIM” value (fibroid tissue [4]; ulipristal (10 or 20 mg, 90 days) treated compared to placebo, P 0.017) was −1.8, the “Fold change of RT-PCR gene product, Clu” value (fibroid tissue [4]; ulipristal (10 or 20 mg, 90 days) treated compared to placebo, P 0.019) was −2.1 and the “Fold change of RT-PCR gene product, Bcl2” value (fibroid tissue [4]; ulipristal (10 or 20 mg, 90 days) treated compared to placebo, P 0.224) was −1.5.
